Article PMC5488202

Experiment: Ring-closing metathesis (C=C formation) of fluorous-tagged (FDIPES) terminal dienes with Hoveyda-Grubbs 2nd generation catalyst (typically 2 mol%, 1-5 mol%), usually with 1,4-benzoquinone (4-10 mol%); quench P(CH2OH)3/Et3N/silica
Conditions: MTBE, 2.0 mM, 55.0 °C

## CC(C)[Si](CCC(F)(F)C(F)(F)C(F)(F)C(F)(F)C(F)(F)C(F)(F)C(F)(F)C(F)(F)F)(OC[C@H]1CC=CCOc2ccccc2COC(=O)N(S(=O)(=O)c2ccccc2[N+](=O)[O-])Cc2cccc(c2)CN1S(=O)(=O)c1ccccc1[N+](=O)[O-])C(C)C (mixture of isomers) [28 (14+10; unchromatographed E/Z mixture)]
From C=CCOc1ccccc1COC(=O)N(Cc1cccc(CN([C@H](CC=C)CO[Si](CCC(F)(F)C(F)(F)C(F)(F)C(F)(F)C(F)(F)C(F)(F)C(F)(F)C(F)(F)F)(C(C)C)C(C)C)S(=O)(=O)c2ccccc2[N+](=O)[O-])c1)S(=O)(=O)c1ccccc1[N+](=O)[O-], 18-membered ring, 24.0 h
  ring closure, isolated yield: 88%

## CC(C)[Si](CCC(F)(F)C(F)(F)C(F)(F)C(F)(F)C(F)(F)C(F)(F)C(F)(F)C(F)(F)F)(OC[C@H]1CC=CCCN(S(=O)(=O)C(F)(F)F)Cc2cccc(c2)CN1S(=O)(=O)c1ccccc1[N+](=O)[O-])C(C)C (mixture of isomers) [30 (14+12; E/Z mixture)]
From C=CCCN(Cc1cccc(CN([C@H](CC=C)CO[Si](CCC(F)(F)C(F)(F)C(F)(F)C(F)(F)C(F)(F)C(F)(F)C(F)(F)C(F)(F)F)(C(C)C)C(C)C)S(=O)(=O)c2ccccc2[N+](=O)[O-])c1)S(=O)(=O)C(F)(F)F, 13-membered ring, 16.0 h
  ring closure, isolated yield: 47%

## CC(C)[Si](CCC(F)(F)C(F)(F)C(F)(F)C(F)(F)C(F)(F)C(F)(F)C(F)(F)C(F)(F)F)(OC[C@H]1CC=CCC[C@@H](O[Si](C)(C)C(C)(C)C)[C@H](C)C(=O)N(S(=O)(=O)c2ccccc2[N+](=O)[O-])CC2=CC=C(CN1S(=O)(=O)c1ccccc1[N+](=O)[O-])S2)C(C)C [3 (from 2; E/Z 65:35)]
From C=CCC[C@@H](O[Si](C)(C)C(C)(C)C)[C@H](C)C(=O)N(Cc1ccc(CN([C@H](CC=C)CO[Si](CCC(F)(F)C(F)(F)C(F)(F)C(F)(F)C(F)(F)C(F)(F)C(F)(F)C(F)(F)F)(C(C)C)C(C)C)S(=O)(=O)c2ccccc2[N+](=O)[O-])s1)S(=O)(=O)c1ccccc1[N+](=O)[O-], 16-membered ring, 16.0 h
  ring closure, isolated yield: 40%

## CC(C)[Si](CCC(F)(F)C(F)(F)C(F)(F)C(F)(F)C(F)(F)C(F)(F)C(F)(F)C(F)(F)F)(OC[C@H]1COCC=CCC[C@@H](O[Si](C)(C)C(C)(C)C)[C@H](C)C(=O)N(S(=O)(=O)c2ccccc2[N+](=O)[O-])Cc2cccc(c2)CN1S(=O)(=O)c1ccccc1[N+](=O)[O-])C(C)C [19 (from 18; Z 50% + E 40%)]
From C=CCC[C@@H](O[Si](C)(C)C(C)(C)C)[C@H](C)C(=O)N(Cc1cccc(CN([C@H](COCC=C)CO[Si](CCC(F)(F)C(F)(F)C(F)(F)C(F)(F)C(F)(F)C(F)(F)C(F)(F)C(F)(F)F)(C(C)C)C(C)C)S(=O)(=O)c2ccccc2[N+](=O)[O-])c1)S(=O)(=O)c1ccccc1[N+](=O)[O-], 18-membered ring, 48.0 h
  ring closure, isolated yield: 90%

## COc1ccc([C@H]2COCC=CC[C@H](CO[Si](CCC(F)(F)C(F)(F)C(F)(F)C(F)(F)C(F)(F)C(F)(F)C(F)(F)C(F)(F)F)(C(C)C)C(C)C)N(S(=O)(=O)c3ccccc3[N+](=O)[O-])CC3=CC=C(CN(S(=O)(=O)c4ccccc4[N+](=O)[O-])C(=O)OC2)S3)c(OC)c1 [21 (15+9, from 20; 2 steps RCM + denosylation; E/Z 65:35)]
From C=CCOC[C@@H](COC(=O)N(Cc1ccc(CN([C@H](CC=C)CO[Si](CCC(F)(F)C(F)(F)C(F)(F)C(F)(F)C(F)(F)C(F)(F)C(F)(F)C(F)(F)F)(C(C)C)C(C)C)S(=O)(=O)c2ccccc2[N+](=O)[O-])s1)S(=O)(=O)c1ccccc1[N+](=O)[O-])c1ccc(OC)cc1OC, 18-membered ring, 24.0 h
  ring closure, isolated yield: 34%

## CC(C)[Si](CCC(F)(F)C(F)(F)C(F)(F)C(F)(F)C(F)(F)C(F)(F)C(F)(F)C(F)(F)F)(OC[C@H]1CC=CCC[C@@H](O[Si](C)(C)C(C)(C)C)[C@H](C)CN(S(=O)(=O)C(F)(F)F)Cc2ccccc2CN1S(=O)(=O)c1ccccc1[N+](=O)[O-])C(C)C [23 (13+11, from 22; 2 steps RCM + denosylation; E/Z 30:70)]
From C=CCC[C@@H](O[Si](C)(C)C(C)(C)C)[C@H](C)CN(Cc1ccccc1CN([C@H](CC=C)CO[Si](CCC(F)(F)C(F)(F)C(F)(F)C(F)(F)C(F)(F)C(F)(F)C(F)(F)C(F)(F)F)(C(C)C)C(C)C)S(=O)(=O)c1ccccc1[N+](=O)[O-])S(=O)(=O)C(F)(F)F, 15-membered ring
  ring closure, isolated yield: 84%

## COc1ccc([C@H]2COCC=CC[C@H](CO[Si](CCC(F)(F)C(F)(F)C(F)(F)C(F)(F)C(F)(F)C(F)(F)C(F)(F)C(F)(F)F)(C(C)C)C(C)C)N(S(=O)(=O)c3ccccc3[N+](=O)[O-])Cc3ccccc3CN(S(=O)(=O)c3ccccc3[N+](=O)[O-])C(=O)OC2)c(OC)c1 [24 (13+9; 2 steps RCM + denosylation; E/Z 60:40)]
From C=CCOC[C@@H](COC(=O)N(Cc1ccccc1CN([C@H](CC=C)CO[Si](CCC(F)(F)C(F)(F)C(F)(F)C(F)(F)C(F)(F)C(F)(F)C(F)(F)C(F)(F)F)(C(C)C)C(C)C)S(=O)(=O)c1ccccc1[N+](=O)[O-])S(=O)(=O)c1ccccc1[N+](=O)[O-])c1ccc(OC)cc1OC, 17-membered ring, 24.0 h
  ring closure, isolated yield: 33%

## CC(C)[Si](CCC(F)(F)C(F)(F)C(F)(F)C(F)(F)C(F)(F)C(F)(F)C(F)(F)C(F)(F)F)(OC[C@H]1CC=CCOc2ccccc2COC(=O)N(S(=O)(=O)c2ccccc2[N+](=O)[O-])Cc2ccccc2CN1S(=O)(=O)c1ccccc1[N+](=O)[O-])C(C)C [25 (13+10; E/Z 65:35)]
From C=CCOc1ccccc1COC(=O)N(Cc1ccccc1CN([C@H](CC=C)CO[Si](CCC(F)(F)C(F)(F)C(F)(F)C(F)(F)C(F)(F)C(F)(F)C(F)(F)C(F)(F)F)(C(C)C)C(C)C)S(=O)(=O)c1ccccc1[N+](=O)[O-])S(=O)(=O)c1ccccc1[N+](=O)[O-], 17-membered ring, 24.0 h
  ring closure, isolated yield: 56%

## CC(C)[Si](CCC(F)(F)C(F)(F)C(F)(F)C(F)(F)C(F)(F)C(F)(F)C(F)(F)C(F)(F)F)(OC[C@H]1CC=CCCN(S(=O)(=O)C(F)(F)F)Cc2ccccc2CN1S(=O)(=O)c1ccccc1[N+](=O)[O-])C(C)C [26 (13+12; E/Z >98:<2)]
From C=CCCN(Cc1ccccc1CN([C@H](CC=C)CO[Si](CCC(F)(F)C(F)(F)C(F)(F)C(F)(F)C(F)(F)C(F)(F)C(F)(F)C(F)(F)F)(C(C)C)C(C)C)S(=O)(=O)c1ccccc1[N+](=O)[O-])S(=O)(=O)C(F)(F)F, 12-membered ring, 6.0 h
  ring closure, isolated yield: 76%

## COc1ccc([C@H]2COCC=CC[C@H](CO[Si](CCC(F)(F)C(F)(F)C(F)(F)C(F)(F)C(F)(F)C(F)(F)C(F)(F)C(F)(F)F)(C(C)C)C(C)C)N(S(=O)(=O)c3ccccc3[N+](=O)[O-])Cc3cccc(c3)CN(S(=O)(=O)c3ccccc3[N+](=O)[O-])C(=O)OC2)c(OC)c1 [27 (14+9; E/Z 60:40)]
From C=CCOC[C@@H](COC(=O)N(Cc1cccc(CN([C@H](CC=C)CO[Si](CCC(F)(F)C(F)(F)C(F)(F)C(F)(F)C(F)(F)C(F)(F)C(F)(F)C(F)(F)F)(C(C)C)C(C)C)S(=O)(=O)c2ccccc2[N+](=O)[O-])c1)S(=O)(=O)c1ccccc1[N+](=O)[O-])c1ccc(OC)cc1OC, 18-membered ring, 24.0 h
  ring closure, isolated yield: 56%

## CC(C)[Si](CCC(F)(F)C(F)(F)C(F)(F)C(F)(F)C(F)(F)C(F)(F)C(F)(F)C(F)(F)F)(OC[C@H]1CC=CCC[C@@H](O[Si](C)(C)C(C)(C)C)[C@H](C)CN(S(=O)(=O)C(F)(F)F)Cc2cccc(c2)CN1S(=O)(=O)c1ccccc1[N+](=O)[O-])C(C)C [29 (14+11; E/Z 15:85)]
From C=CCC[C@@H](O[Si](C)(C)C(C)(C)C)[C@H](C)CN(Cc1cccc(CN([C@H](CC=C)CO[Si](CCC(F)(F)C(F)(F)C(F)(F)C(F)(F)C(F)(F)C(F)(F)C(F)(F)C(F)(F)F)(C(C)C)C(C)C)S(=O)(=O)c2ccccc2[N+](=O)[O-])c1)S(=O)(=O)C(F)(F)F, 16-membered ring, 4.0 h
  ring closure, isolated yield: 78%

## CC(C)[Si](CCC(F)(F)C(F)(F)C(F)(F)C(F)(F)C(F)(F)C(F)(F)C(F)(F)C(F)(F)F)(OC[C@H]1CC=CCOc2ccccc2COC(=O)N(S(=O)(=O)c2ccccc2[N+](=O)[O-])CC2=CC=C(CN1S(=O)(=O)c1ccccc1[N+](=O)[O-])S2)C(C)C [31 (15+10; E/Z >98:<2)]
From C=CCOc1ccccc1COC(=O)N(Cc1ccc(CN([C@H](CC=C)CO[Si](CCC(F)(F)C(F)(F)C(F)(F)C(F)(F)C(F)(F)C(F)(F)C(F)(F)C(F)(F)F)(C(C)C)C(C)C)S(=O)(=O)c2ccccc2[N+](=O)[O-])s1)S(=O)(=O)c1ccccc1[N+](=O)[O-], 18-membered ring, 16.0 h
  ring closure, isolated yield: 60%

## COc1ccc([C@H]2COCC=CCOC[C@@H](CO[Si](CCC(F)(F)C(F)(F)C(F)(F)C(F)(F)C(F)(F)C(F)(F)C(F)(F)C(F)(F)F)(C(C)C)C(C)C)N(S(=O)(=O)c3ccccc3[N+](=O)[O-])Cc3ccccc3CN(S(=O)(=O)c3ccccc3[N+](=O)[O-])C(=O)OC2)c(OC)c1 [32 (16+9; E/Z >98:<2)]
From C=CCOC[C@@H](COC(=O)N(Cc1ccccc1CN([C@@H](COCC=C)CO[Si](CCC(F)(F)C(F)(F)C(F)(F)C(F)(F)C(F)(F)C(F)(F)C(F)(F)C(F)(F)F)(C(C)C)C(C)C)S(=O)(=O)c1ccccc1[N+](=O)[O-])S(=O)(=O)c1ccccc1[N+](=O)[O-])c1ccc(OC)cc1OC, 19-membered ring, 36.0 h
  ring closure, isolated yield: 88%

## CC(C)[Si](CCC(F)(F)C(F)(F)C(F)(F)C(F)(F)C(F)(F)C(F)(F)C(F)(F)C(F)(F)F)(OC[C@@H]1COCC=CCOc2ccccc2COC(=O)N(S(=O)(=O)c2ccccc2[N+](=O)[O-])Cc2ccccc2CN1S(=O)(=O)c1ccccc1[N+](=O)[O-])C(C)C [33 (16+10; E/Z >98:<2)]
From C=CCOC[C@@H](CO[Si](CCC(F)(F)C(F)(F)C(F)(F)C(F)(F)C(F)(F)C(F)(F)C(F)(F)C(F)(F)F)(C(C)C)C(C)C)N(Cc1ccccc1CN(C(=O)OCc1ccccc1OCC=C)S(=O)(=O)c1ccccc1[N+](=O)[O-])S(=O)(=O)c1ccccc1[N+](=O)[O-], 19-membered ring, 48.0 h
  ring closure, isolated yield: 75%
